Assay results reported in paper PMC8055690, “Flavonoids increase melanin production and reduce proliferation, migration and invasion of melanoma cells by blocking endolysosomal/melanosomal TPC2” (Scientific Reports, 2021).

What was measured:
[1] = biological target: T1, two-pore channel 2 (hTPC2) (Homo sapiens, UniProt Q8NHX9); experiment: endolysosomal patch-clamp, block of PI([…])P2-evoked current; assay type: biochemical
T1 construct: gene TPCN2; hTPC2-YFP stably expressed in HEK293 cells

[2] = biological target: T1, two-pore channel 2 (hTPC2); experiment: endolysosomal patch-clamp, single concentration […]; assay type: cell-based

T1 sequence (Q8NHX9 whole entry): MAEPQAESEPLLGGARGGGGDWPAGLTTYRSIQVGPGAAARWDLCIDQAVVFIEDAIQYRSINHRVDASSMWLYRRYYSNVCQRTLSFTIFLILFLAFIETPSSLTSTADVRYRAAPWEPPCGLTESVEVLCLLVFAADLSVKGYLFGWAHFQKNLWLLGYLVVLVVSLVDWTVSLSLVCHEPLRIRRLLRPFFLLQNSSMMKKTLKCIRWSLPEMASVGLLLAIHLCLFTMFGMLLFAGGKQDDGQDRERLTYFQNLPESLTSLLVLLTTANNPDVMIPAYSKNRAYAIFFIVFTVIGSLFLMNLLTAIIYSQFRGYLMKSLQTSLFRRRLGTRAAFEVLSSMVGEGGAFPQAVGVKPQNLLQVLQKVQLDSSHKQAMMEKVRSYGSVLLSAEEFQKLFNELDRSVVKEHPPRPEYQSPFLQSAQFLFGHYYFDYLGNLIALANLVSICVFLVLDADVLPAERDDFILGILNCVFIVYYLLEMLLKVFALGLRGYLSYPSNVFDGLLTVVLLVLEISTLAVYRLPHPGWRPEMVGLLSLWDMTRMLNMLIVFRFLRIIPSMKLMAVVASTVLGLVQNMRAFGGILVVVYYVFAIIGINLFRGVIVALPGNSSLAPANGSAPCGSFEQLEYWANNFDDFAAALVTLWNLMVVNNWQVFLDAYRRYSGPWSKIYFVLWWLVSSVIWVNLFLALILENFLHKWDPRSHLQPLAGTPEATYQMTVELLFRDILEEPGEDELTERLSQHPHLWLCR

Compound	IC50 [1] [µM]	endolysosomal patch-clamp, single concentration 10 μM [2]
COc1ccc(-c2coc3cc(O)cc(O)c3c2=O)cc1O [MT-8, pratensein]	2.6 ± 0.3	
O=C1C[C@@H](c2ccc(O)cc2)Oc2cc(O)cc(O)c21 [MT-16, naringenin]	74 ± 9	
COc1ccc(-c2coc3cc(O)cc(O)c3c2=O)cc1 [TR-9]		TR-9 and TR-12 which showed variable effects on melanin generation also proved to be less efficacious inhibitors of hTPC2
O=C1C[C@@H](c2ccccc2)Oc2cc(O)cc(O)c21 [TR-12]		TR-9 and TR-12 which showed variable effects on melanin generation also proved to be less efficacious inhibitors of hTPC2
COc1ccc([C@@H]2COc3c(ccc(O)c3OC)C2)c(OC)c1O [UM-9, duartin]	9.5 ± 2.8	
